Biological target: T1, KCNQ2 potassium channels (CHO-KCNQ2 cells) (Homo sapiens, UniProt O43526)
T1 construct: expressed in transfected cells; host or cells: CHO cells stably expressing KCNQ2 (G418 selection in the culture medium)
Assay: Potassium ion channel opener activity test (FDSS/μCELL detection, FluxOR thallium flux)
Format: cell-based
Settings: 8 concentrations 0.045-100 μM; for EC50: 3 replicate wells; for Emax: ratio at 180 s, read-out: Maximum agonistic rate (%)
Experimental: Example A1 Potassium Ion Channel Opener Activity Test (FDSS/μ CELL Detection)
Cell preparation: CHO-KCNQ2 cells were cultured in a 175 cm^2 culture flask, and when the cell density grew to 60˜80%, the culture medium was removed and the cells were washed once with 7 mL PBS (Phosphate Buffered Saline), and then 3 mL of 0.25% Trypsin was added for digestion. After completion of digestion, 7 mL of culture medium (90% DMEM/F12+10% FBS+500 μg/mL G418) was added to neutralize, and centrifuged at 800 rpm for 3 min; the supernatant was aspirated, then 5 mL of culture medium was added to resuspend the cells, and the cells were counted.
Cell spreading: according to the cell counting results, the density was adjusted to 3×10^4 cells/well. After standing at room temperature for 30 minutes, the cells were placed in a CO2 incubator at 37° C. overnight, and incubated for 16-18 hours to reach a cell density of about 80%.
Fluorescent dye incubation: Cell culture solution was discarded, 80 μL/well of loading buffer was added and the cells were incubated for 60 minutes at room temperature and protected from light.
Compound incubation: Loading buffer was discarded, 80 μL/well of prepared compound solution was added, and the cells were incubated for 20 min at room temperature and protected from light.
Fluorescence data acquisition: Real-time fluorescence signal recording was performed using an FDSS/μCELL instrument with an excitation wavelength of 480 nm and an emission wavelength of 540 nm, and the signal was recorded once per second. 10 seconds of the baseline was recorded, then 20 μL/well of stimulation buffer was added, and the recording was continued until the end of 180 seconds.
20 mM stock solution of compound in DMSO was prepared, 10 μL of 20 mM compound stock solution was taken into 20 μL of DMSO solution, and a 3-fold serial dilution was performed to form 8 intermediate concentrations; then the intermediate concentrations of the compounds were taken respectively into test buffer, and a 200-fold dilution was performed to obtain the final concentration to be tested, and 80 μL was taken and added to the assay plate.
The highest test concentration was 100 μM, and there was a total of 8 concentrations, i.e., 100, 33.33, 11.11, 3.70, 1.23, 0.41, 0.137, 0.045 μM, respectively, with 3 replicate wells for each concentration.
The experimental data were analyzed by Excel 2007, GraphPad Prism 5.0 software, and the ratio of 180 s was counted to calculate the agonistic effect. The agonistic effect of the compound was calculated by the following equation:
• Environment: Temperature ˜25° C. • Reagent: FluxOR™ detection kit (Invitrogen, Cat #F0017) • The experimental data in the report must meet the following criteria: Z′ Factor>0.5 2. Results: See Table 1 for details, wherein a smaller EC50 indicates a higher activity of the corresponding compound.

T1 sequence (O43526 whole entry): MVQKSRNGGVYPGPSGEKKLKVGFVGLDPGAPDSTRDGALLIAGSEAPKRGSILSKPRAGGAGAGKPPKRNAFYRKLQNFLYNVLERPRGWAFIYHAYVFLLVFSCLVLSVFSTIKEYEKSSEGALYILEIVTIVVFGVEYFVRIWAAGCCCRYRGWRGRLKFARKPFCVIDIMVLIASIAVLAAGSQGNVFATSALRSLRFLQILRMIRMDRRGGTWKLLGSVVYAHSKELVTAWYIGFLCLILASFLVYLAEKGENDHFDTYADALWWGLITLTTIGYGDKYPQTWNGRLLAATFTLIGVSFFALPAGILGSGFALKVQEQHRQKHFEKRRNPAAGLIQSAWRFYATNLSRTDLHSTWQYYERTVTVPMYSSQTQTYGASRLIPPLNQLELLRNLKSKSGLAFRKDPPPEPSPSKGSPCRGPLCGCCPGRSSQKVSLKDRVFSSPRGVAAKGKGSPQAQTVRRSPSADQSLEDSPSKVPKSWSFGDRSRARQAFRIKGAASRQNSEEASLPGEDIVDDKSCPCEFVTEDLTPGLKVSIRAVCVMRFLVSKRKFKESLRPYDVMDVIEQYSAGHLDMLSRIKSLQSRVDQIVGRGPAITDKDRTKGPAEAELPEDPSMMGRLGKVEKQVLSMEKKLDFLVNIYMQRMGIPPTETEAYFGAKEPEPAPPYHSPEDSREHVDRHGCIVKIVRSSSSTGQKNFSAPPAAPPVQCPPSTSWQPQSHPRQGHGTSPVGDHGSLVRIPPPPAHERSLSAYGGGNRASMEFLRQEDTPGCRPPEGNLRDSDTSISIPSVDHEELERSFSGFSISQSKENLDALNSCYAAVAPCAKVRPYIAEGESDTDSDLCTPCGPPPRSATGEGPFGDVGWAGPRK

Row | SMILES | EC50 [nM] | Emax [%]
1 | Cc1cc(N2CCn3cccc3C2)cc(C)c1NC(=O)CC1(C)CC1 [Compound 3006] | 270 | 34.9
2 | Cc1cc(N2CCSc3ccccc3C2)cc(C)c1NC(=O)CC1(C)CC1 [Compound 3011] | 4.3 | 49.4
3 | Cc1cc(N2CCc3cc(C(F)(F)F)ccc3C2)cc(C)c1NC(=O)CC1(C)CC1 [Compound 3001] | 86 | 45.6
4 | Cc1cc(N2CCOc3cc(C(F)(F)F)ccc3C2)cc(C)c1NC(=O)CC1(C)CC1 [Compound 3003] | 18 | 39.6
5 | Cc1cc(N2CCOc3cc(F)ccc3C2)cc(C)c1NC(=O)CC1(C)CC1 [Compound 3008] | 17 | 40.9
6 | Cc1cc(N2CCc3sc(F)cc3C2)cc(C)c1NC(=O)CC1(C)CC1 [Compound 3005] | 110 | 46.7
7 | Cc1cc(N2CCCn3cccc3C2)cc(C)c1NC(=O)CC1(C)CC1 [Compound 3010] | 3700 | 35.3
8 | Cc1cc(N2CCCCc3cc(C(F)(F)F)ccc32)cc(C)c1NC(=O)CC1(C)CC1 [Compound 3002] | 580 | 28.1

The next lines start with the values.

Row | EC50 [nM] | Emax [%] | SMILES
9 | 71 | 36.1 | Cc1ccc2c(c1)OCCCN2c1cc(C)c(NC(=O)CC2(C)CC2)c(C)c1 [Compound 3009]
10 | 30 | 41.5 | Cc1ccc2c(c1)CCCCN2c1cc(C)c(NC(=O)CC2(C)CC2)c(C)c1 [Compound 3007]
11 | 580 | 17.7 | Cc1cc(N2CCCOc3cc(C(F)(F)F)ccc32)cc(C)c1NC(=O)CC1(C)CC1 [Compound 3004]

From patent US20250144115A1, “AMIDE COMPOUND AS POTASSIUM CHANNEL REGULATOR, AND PREPARATION THEREFOR AND USE THEREOF” (Shanghai Zhimeng Biopharma, Inc., priority 2022, published 2025)
